In series [1] the target is T1, cloned α subunit of rat BKCa channels, rSlo (Rattus norvegicus, UniProt Q62976).
T1 construct: expressed in transfected cells; host or cells: Xenopus laevis oocytes
In words: Excised outside-out voltage clamp recording, fold increase of BKCa channel currents by extracellularly applied compounds. Type of series: cell-based. To be noted: extracellular treatment at 20 μM; outside-out patch, Xenopus laevis oocytes expressing rSlo. The protocol:
FIG. 3 illustrates relative fold-increase of BKCa channel activity by extracellularly applied benzofuroindole analogues of present invention. Bar graphs represent fold increases in BKCa channel currents evoked by extracellular treatment of various compounds at 20 μM.
The biological activity of compounds 7˜23 to open BKCa channels and increase the BKCa channel currents was determined by using excised outside-out voltage clamp recording from Xenopus laevis oocytes expressing cloned α subunit of rat BKCa channels, rSlo.

The target in series [2] is BKCa channel (Homo sapiens, UniProt Q12791). Particulars: similar assay system, same concentration (20 μM); cited from earlier work.
Sequence of BKCa channel (Q12791 whole entry): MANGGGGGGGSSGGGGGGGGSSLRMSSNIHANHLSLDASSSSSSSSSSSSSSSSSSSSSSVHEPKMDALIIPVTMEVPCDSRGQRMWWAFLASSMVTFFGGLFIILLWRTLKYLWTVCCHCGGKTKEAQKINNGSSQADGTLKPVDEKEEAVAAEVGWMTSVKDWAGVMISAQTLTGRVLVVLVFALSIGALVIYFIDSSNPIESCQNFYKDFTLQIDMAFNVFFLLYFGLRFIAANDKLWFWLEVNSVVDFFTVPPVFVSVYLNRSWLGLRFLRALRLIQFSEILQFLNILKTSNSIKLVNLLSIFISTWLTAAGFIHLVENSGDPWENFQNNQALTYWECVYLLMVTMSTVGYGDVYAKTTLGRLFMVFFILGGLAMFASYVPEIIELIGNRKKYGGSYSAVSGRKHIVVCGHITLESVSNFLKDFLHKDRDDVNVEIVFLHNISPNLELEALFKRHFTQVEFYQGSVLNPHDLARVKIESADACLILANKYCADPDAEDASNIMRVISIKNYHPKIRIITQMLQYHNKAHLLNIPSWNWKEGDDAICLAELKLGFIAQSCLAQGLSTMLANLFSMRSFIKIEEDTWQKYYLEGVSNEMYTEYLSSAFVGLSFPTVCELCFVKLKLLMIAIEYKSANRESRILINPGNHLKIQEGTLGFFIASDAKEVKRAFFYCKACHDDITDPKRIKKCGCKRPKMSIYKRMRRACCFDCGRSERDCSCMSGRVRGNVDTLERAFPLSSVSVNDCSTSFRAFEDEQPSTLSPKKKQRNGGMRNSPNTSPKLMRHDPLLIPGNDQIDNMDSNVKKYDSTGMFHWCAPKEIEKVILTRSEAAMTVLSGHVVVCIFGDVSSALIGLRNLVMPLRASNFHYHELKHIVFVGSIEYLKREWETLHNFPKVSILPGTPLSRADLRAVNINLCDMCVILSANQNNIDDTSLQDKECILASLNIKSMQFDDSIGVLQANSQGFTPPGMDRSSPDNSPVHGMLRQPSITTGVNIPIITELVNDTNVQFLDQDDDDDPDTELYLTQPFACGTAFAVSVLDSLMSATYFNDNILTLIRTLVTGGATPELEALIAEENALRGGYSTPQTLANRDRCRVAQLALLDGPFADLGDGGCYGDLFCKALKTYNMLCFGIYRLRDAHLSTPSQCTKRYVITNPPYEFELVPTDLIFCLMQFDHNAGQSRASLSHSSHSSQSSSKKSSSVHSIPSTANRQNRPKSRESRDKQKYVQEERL
Series [3] deals with T2, rSlo channel (Rattus norvegicus, UniProt Q62976).
T2 construct: expressed in transfected cells; host or cells: Xenopus laevis oocytes
T2 sequence (Q62976 whole entry): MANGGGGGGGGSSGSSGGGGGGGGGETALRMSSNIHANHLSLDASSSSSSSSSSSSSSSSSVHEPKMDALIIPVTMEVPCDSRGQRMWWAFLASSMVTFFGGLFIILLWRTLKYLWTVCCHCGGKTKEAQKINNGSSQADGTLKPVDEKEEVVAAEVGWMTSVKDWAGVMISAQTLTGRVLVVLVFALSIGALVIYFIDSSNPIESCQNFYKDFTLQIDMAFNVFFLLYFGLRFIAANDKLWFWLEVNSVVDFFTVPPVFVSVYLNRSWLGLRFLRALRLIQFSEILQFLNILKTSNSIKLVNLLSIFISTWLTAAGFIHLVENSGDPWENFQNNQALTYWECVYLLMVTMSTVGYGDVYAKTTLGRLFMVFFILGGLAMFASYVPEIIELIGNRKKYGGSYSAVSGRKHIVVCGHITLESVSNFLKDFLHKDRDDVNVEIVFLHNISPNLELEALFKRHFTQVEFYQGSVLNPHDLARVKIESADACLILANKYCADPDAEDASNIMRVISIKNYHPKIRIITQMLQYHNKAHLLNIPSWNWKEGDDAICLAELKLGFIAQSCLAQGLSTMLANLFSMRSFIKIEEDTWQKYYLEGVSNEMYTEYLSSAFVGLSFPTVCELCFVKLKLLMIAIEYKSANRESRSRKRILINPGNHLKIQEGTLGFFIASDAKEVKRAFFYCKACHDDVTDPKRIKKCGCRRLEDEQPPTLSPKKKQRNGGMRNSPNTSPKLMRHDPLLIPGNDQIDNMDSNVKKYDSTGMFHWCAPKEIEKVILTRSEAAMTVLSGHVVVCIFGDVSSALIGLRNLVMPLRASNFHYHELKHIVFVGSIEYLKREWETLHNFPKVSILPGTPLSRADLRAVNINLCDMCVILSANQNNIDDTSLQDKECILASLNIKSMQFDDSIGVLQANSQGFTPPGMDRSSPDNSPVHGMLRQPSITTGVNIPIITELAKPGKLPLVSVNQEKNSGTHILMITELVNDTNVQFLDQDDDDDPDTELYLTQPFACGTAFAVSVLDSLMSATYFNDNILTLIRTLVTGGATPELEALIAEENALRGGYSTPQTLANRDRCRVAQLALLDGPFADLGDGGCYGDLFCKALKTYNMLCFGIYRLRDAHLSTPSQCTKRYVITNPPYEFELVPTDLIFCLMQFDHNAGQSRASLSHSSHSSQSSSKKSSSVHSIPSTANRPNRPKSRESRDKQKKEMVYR
In words: Concentration dependence on macroscopic rSlo channel activity expressed in Xenopus oocytes, Hill fit. Type of series: cell-based. The protocol: FIG. 5 illustrates concentration-dependence of compound 22 on BKCa channel. Data points were fitted with Hill equation.
We performed experiments to determine the concentration dependence for the effect of compound 22 on macroscopic rSlo channel activity expressed in Xenopus oocytes.
Currents were recorded from excised outside-out patches before and after the addition of seven different concentrations of compound 22, from 0 to 300 μM. Channel activity of rSlo was elicited after patch excision with 2 μM intracellular Ca^2+ and increased rapidly with the addition of compound 22. Membrane potential was held at −120 mV and stepped to 50 mV for 50 ms. Relative current differences were determined from the currents of control activated with 2 μM of intracellular Ca^2+ and voltage at 50 mV, normalized with control currents and the obtained data points were fitter with a Hill equation (FIG. 5).

Series [4] concerns the target T2, rSlo channel. The experiment in a line: Potentiating effect on rSlo channels at various intracellular Ca2+ concentrations, outside-out patch. Type of series: cell-based. To be noted: 20 μM extracellular. The method, then:
FIG. 4 illustrates potency of extracellularly applied compound 22 on rSlo channels in various intracellular Ca^2+ concentrations. Representative raw-traces were shown at different intracellular Ca^2+ concentrations. Intracellular Ca^2+ concentration was increased from Ca^2+-free (A), 0.5 μM (B), 1 μM (C) and 2 μM (D). The concentration of compound 22 was 20 μM on the extracellular side.
To investigate the potentiating effect of compound 22 on rSlo channels at various intracellular Ca^2+ concentrations, rSlo channels were activated in different concentrations of intracellular Ca^2+.
Excised outside-out patch configurations were obtained by making a gigaohm seal, rupturing the membrane pulling the pipette from oocytes. Both of the bath and pipette contained symmetrical 124 mM K^+ ions. Voltage pulses were applied to activate rSlo channel currents from −120 mV to 140 mV in 10 mV increments and intracellular Ca^2+ concentrations were used to activate rSlo channel from 0 (Ca^2+-free solution was to chelate with 5 mM EGTA) to 2 μM in intracellular side.
The representative raw-traces of rSlo channel activated by membrane voltages and intracellular Ca^2+ (FIG. 4). rSlo channel currents were recorded before and after the addition of 20 μM of compound 22.

In series [5] the target is T2, rSlo channel. In words: Concentration-dependence of channel opening, compound applied to the extracellular side of membrane patches. The class given is cell-based. Particulars: extracellular application. The source says: FIG. 6 illustrates concentration-dependence activity of compound 8 on BKCa channel. FIG. 6A illustrates concentration-dependence activity of rSlo channel. FIG. 6B illustrates concentration-dependence activity of rSlo channel combined with human β1. FIG. 6C illustrates concentration-dependence activity of rSlo channel combined with rat β4 subunit.
(§1) We then measured the concentration-dependence of compound 8 of the present invention. […] Although we were not able to obtain a concentration of compound 8 higher than 300 μM because of its solubility in water, we noticed that compound 8-induced current increases reached plateau levels at around 100 μM. […] We also measured the effects of compound 8 using inside-out patch configuration to determine whether this compound also affects channel activity from the intracellular side. The intracellular Ca^2+ concentration was fixed at 2 μM to activate rSlo channels, and different concentrations of compound 8 were added to the intracellular side of the membrane.

The nature of series [6]: Solubility in water (highest obtainable concentration). Particulars: read-out: highest obtainable concentration because of solubility in water. The class given is physicochemical. The protocol:
as §1

Molecules are shown by their SMILES. “Also recorded” adds a separate entry of the source.

T1 sequence (Q62976 whole entry): as above

Regarding `O=C(O)c1cc(Cl)cc2c1[nH]c1c3ccc(C(F)(F)F)cc3oc21` [Compound 23, 3-Chloro-7-trifluoromethyl-10H-benzo[4,5]furo[3,2-b]indole-1-carboxylic acid], the “fold increase of BKCa channel currents” value in series [1] is listed as “close but not better channel opening activity than compound 22”.

On to `FC(F)(F)c1ccc2c(c1)oc1c2[nH]c2cc(Cl)cc(Cl)c21` [Compound 19, 2,4-Dichloro-7-trifluoromethyl-10H-benzo[4,5]furo[3,2-b]indole], for which, in series [1], the “fold increase of BKCa channel currents” value is on record as “activity near to the basal level”.

`COc1ccc(Cl)cc1-c1c(CCO)c(=O)[nH]c2ccc(C(F)(F)F)cc12` [Compound 2]: in series [2], the reported fold increase was around 3.7.

As for `O=C(O)c1ccc(Cl)c2c1[nH]c1c3ccc(C(F)(F)F)cc3oc12` [Compound 22, 4-Chloro-7-trifluoromethyl-10H-benzo[4,5]furo[3,2-b]indole-1-carboxylic acid], the “effect on rSlo current over concentration range” value in series [3] (50 nM to 300 μM) is listed as “enhanced rSlo current in a concentration dependent manner”. In addition, the Kd in series [3] (2 μM intracellular Ca2+, step to 50 mV, N=5, read-out: Kd, apparent dissociation constant (Hill fit)) was 4.01 ± 0.75 µM. The “reversibility of enhanced rSlo current by washout” value in series [4] (all tested intracellular Ca2+ concentrations) was “could be removed by washout”. Besides, the “effect on rSlo channel current” value in series [4] (intracellular Ca2+ from Ca2+-free to 2 μM) is reported as “markedly significant effects on rSlo channel current; also recorded: intracellular Ca^2+ concentrations do not affect the potentiating effect”. For the same compound, in series [1], the “fold increase of BKCa channel currents” value is listed as “more than 6 fold”.

In the case of `FC(F)(F)c1ccc2c(c1)oc1c3ccc(Cl)c(Cl)c3[nH]c21` [Compound 18, 1,2-Dichloro-7-trifluoromethyl-10H-benzo[4,5]furo[3,2-b]indole], the “fold increase of BKCa channel currents” value in series [1] is “activity near to the basal level”.

One may read the EC50 as the concentration that produces a half-maximal response. Compound `O=C(O)c1cccc2c1[nH]c1c3ccc(C(F)(F)F)cc3oc21` [Compound 8, 7-Trifluoromethyl-10H-benzo[4,5]furo[3,2-b]indole-1-carboxylic acid] yielded an EC50 in series [5] of 8.9 ± 1.5 µM. In addition, the solubility in series [6] was at most 300 µM.

In the case of `COc1ccc(Cl)cc1[C@]1(F)C(=O)Nc2cc(C(F)(F)F)ccc21` [BMS-204352], the reported fold increase entry in series [2] was “around 1.5”.

The values above are taken from patent US7812177B2, “Potassium channel opener having benzofuroindole skeleton” (Anygen Co., Ltd., priority 2005, dated 2010).
